The results in this text go back to the METLIN SMRT retention time set (Domingo-Almenara et al. 2019).

A short description of this data set: gradient 5% acetonitrile 3 min, to 50% in 2 min, to 85% in 15 min, held 3 min, 100 µL/min. The conditions noted are these: column: Zorbax Extend-C18 2.1 x 50 mm; eluents: water / acetonitrile, 0.1% formic acid. A digest of the protocol: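 Each retention time is based on an adduct peak selected computationally and verified by manual inspection. Measurements used HPLC–quadrupole time-of-flight mass spectrometry in positive and negative ionization mode on mixtures of ~100 pure standards. Chromatography ran on a Zorbax Extend-C18 column (2.1 × 50 mm, 1.8 μm) at 100 μL/min with water and acetonitrile, each containing 0.1% formic acid, and dead and dwell volumes of 40 μL and 900 μL.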
`Cc1cc(C)c(S(=O)(=O)N2CC(F)(F)C[C@H]2COc2cccnc2)c(C)c1` had an RP-LC retention time of 834 s.
`Cc1ccn2c(Nc3ccc4c(c3)OCCO4)c(-c3ccc(N4CCOCC4)cc3)nc2c1` yielded an RP-LC retention time of 680 s.
In turn, `CCc1nn(C)c(=O)c2cc(S(=O)(=O)NCc3ccc(Cl)cc3)cn12` had an RP-LC retention time of 911 s.
In turn, `CCc1nnc(-c2cccc(OCC(=O)N3CCCc4ccccc43)c2)o1` registered an RP-LC retention time of 814 s.
On to `O=C(NCCN1CCOCC1)c1ccc(-c2c(-c3ccc(F)cc3)ncn2C2CCCC2)o1`, for which the RP-LC retention time was 592 s.
Regarding `CC(C)(C)NC(=O)c1csc(-c2ccc(N3CCCC3)nc2)n1`, the RP-LC retention time worked out at 670 s.
`COCCN1CCn2cc(S(=O)(=O)Nc3ccc(C)c(C)c3)cc2C1=O` displayed an RP-LC retention time of 745 s.
For `O=C(CSc1nc2ccccc2s1)OCc1cc(-c2ccco2)on1`, the RP-LC retention time was determined as 1010 s.
As for `N#Cc1ccc(CN2C[C@@H](CO)[C@H](c3ccccn3)C2)cc1`, the figure is 569 s; as for `CCc1cccc(C)c1NC(=O)Cn1c(C)nc2c(sc3nc(-c4ccccc4)ccc32)c1=O`, 1110 s.
The value for `CC(C)n1cnc2cc(CNC(=O)c3cnccn3)ccc21` was 572 s.
For `O=C(NCCn1c(-c2ccncc2)nc2cccnc21)Nc1cccc(Cl)c1`, the RP-LC retention time came to 645 s.
In turn, `Cc1cccc(CN2CCCn3nc(C(=O)NCCc4cnc[nH]4)cc3C2=O)c1` registered an RP-LC retention time of 610 s.
Regarding `CCn1cc(CCN2CCC(C(=O)N3CCOCC3)CC2)c2cccnc21`, the RP-LC retention time was determined as 566 s.
As for `CC(NCC(O)COCCOc1ccc(F)cc1)c1ccccc1` (centres undefined), the RP-LC retention time came out at 595 s.
In turn, `Cc1sc(-c2cc(C(F)(F)F)on2)cc1S(=O)(=O)Nc1ccc(F)cc1` came in with an RP-LC retention time of 1120 s.
`Cc1cc(-c2nnc(NC(=O)c3cnn(-c4ccccc4)c3C)o2)c(C)o1` showed an RP-LC retention time of 798 s.
As for `CNc1cc(C(N)=O)c2cccc(Cl)c2n1`, the figure is 559 s; as for `CNC(=O)[C@H](Cc1c[nH]c2ccccc12)NC(=O)[C@@H](CC(=O)NO)CC(C)C`, 662 s; as for `CC(C)NC(=O)Cn1c2ccccc2n2c(=O)cc(-c3cccc(Cl)c3)nc12`, 926 s.
Compound `CCn1c(=O)c2ccccc2n(Cc2nc(-c3ccccc3Br)no2)c1=O` yielded an RP-LC retention time of 1020 s.
As to `c1cc(N2CCSCC2)ncc1-c1noc(CN2CCN(C3CCCCC3)CC2)n1`, the RP-LC retention time stood at 655 s.
As for `CC1(C)CC(O)CC(C)(C)N1CC(O)COc1ccc(Cl)cc1Cl` (centres undefined), the figure is 590 s; as for `CCOC(=O)Nc1c(Cl)n(C)c(=O)n(C)c1=O`, 648 s; as for `C=CCn1c(=O)c2c(nc3n2CCN3c2ccc(OC)cc2)n(C)c1=O`, 786 s.
In turn, `CCN(CCNC(=O)CCc1cc2cc(OC)ccc2[nH]c1=O)Cc1ccccc1` yielded an RP-LC retention time of 626 s.
As for `CC1(C(=O)NCc2ccc(F)cc2)CCCN(C(=O)NCCc2ccccc2)C1` (centres undefined), the RP-LC retention time was 857 s.
Consider `COC(=O)c1c(C)c(C(=O)C(C)N(C(=O)c2ccc(Cl)cc2)C2CC2)c(C)n1C` (centres undefined), for which the RP-LC retention time was 1030 s.
`CSc1ccccc1NC(=O)C(=O)NCC1CCN(Cc2cc(C)oc2C)CC1`: the RP-LC retention time was 615 s.
For `O=C(NCCCN1CCOCC1)c1ccc(-c2c(-c3ccc(F)cc3)ncn2C2CCCC2)o1`, the RP-LC retention time was determined as 590 s.
As for `O=C(c1cnc2ccccc2n1)N1CC(c2nc(-c3cccc(C(F)(F)F)c3)no2)C1`, the figure is 1030 s.
Turning to `CC[C@H](C)NC(=O)Cc1nnc(-c2ccccc2)o1`, the RP-LC retention time turned out to be 705 s.
For the compound `c1ccc(-c2noc(-c3ccc(NCc4ccc5c(c4)OCO5)nc3)n2)cc1`, the RP-LC retention time came to 1110 s.
`Cn1c(=O)n(C)c2cc(NS(=O)(=O)c3ccc(F)cc3)c(Cl)cc21` showed an RP-LC retention time of 726 s.
For the compound `Cc1cc(NC(=O)c2ccc3c(c2)CCCC3)n(C(C)C)n1`, the RP-LC retention time is 835 s.
As to `COc1ccc(C(=O)N2CCC3(CC2)NCc2ccccc2-n2ccnc23)cc1OC`, the RP-LC retention time stood at 594 s.
In turn, `Cc1noc(C)c1-c1ccc(S(=O)(=O)Nc2ccc3c(c2)OCCO3)cc1` yielded an RP-LC retention time of 880 s.
Take `CC1Oc2ccc(-c3csc(NC(=O)C(C)(C)C)n3)cc2N(C)C1=O` (centres undefined): the RP-LC retention time worked out at 963 s.
As for `COc1cccc2cc(C(=O)NCCn3nc(-c4cccs4)ccc3=O)oc12`, the figure is 676 s; as for `COc1cccc(CC(=O)Nc2ccc3c(c2)Sc2ncccc2C(=O)N3C(C)C)c1`, 855 s; as for `CCCN1C(=O)COc2ccc(-c3noc(-c4cccc(N(C)C)c4)n3)cc21`, 1300 s.
With `O=S(=O)(c1ccccc1Cl)N1CCN(Cc2cccc(F)c2)C2(CCOCC2)C1`, the RP-LC retention time turned out to be 846 s.
Compound `O=C(Cc1cccs1)NCCCN1CCOC(c2ccccc2)C1` (centres undefined) registered an RP-LC retention time of 556 s.
The compound `CCOC(=O)c1nc(Nc2cc(Cl)c(OC)cc2OC)c2ccccc2n1` yielded an RP-LC retention time of 964 s.
Take `OC1(c2ccccn2)CCOC2(CCN(Cc3ccc(Cl)c(F)c3)CC2)C1` (centres undefined): the RP-LC retention time turned out to be 591 s.
With `O=C(c1ccc(Cl)cc1)N(CC1CCOC1)C1CC1` (centres undefined), the RP-LC retention time was 791 s.
Consider `O=C1N(c2ccccc2)CC12CCN(S(=O)(=O)c1ccccc1)CC2`, for which the RP-LC retention time was 957 s.
As for `Cc1ccc(CN2CCN(C3CCN(C(=O)Nc4cccc(C)c4)CC3)C(=O)C2=O)cc1`, the RP-LC retention time worked out at 740 s.
`COc1ccc(-c2ccc(=O)n(Cc3nc(-c4ccc(F)cc4)no3)n2)cc1`: the RP-LC retention time turned out to be 995 s.
As for `Cn1c(N2CCCC(C(=O)NCCN3CCN(c4ccccc4F)CC3)C2)cc(=O)n(C)c1=O` (centres undefined), the figure is 591 s; as for `CCC(=O)NCc1nc2c(n1CC)CN(C(=O)c1ccc(Cl)cc1)CC2`, 529 s; as for `COc1ccc(C(=O)N2CCN(C(=O)c3nnn4c3COC(c3ccc(F)cc3)C4)CC2)cc1F` (centres undefined), 844 s.
Compound `CN1CCN(CC2(O)CCC3(CCN(C(=O)c4ccsc4)CC3)CC2)CC1` registered an RP-LC retention time of 570 s.
The value for `Cc1ccn2c(NC(=O)c3cccc([N+](=O)[O-])c3C)c(-c3ccccc3)nc2c1` was 677 s; that for `O=C(Cn1c(=O)c2cc(-c3cccs3)nn2c2ncccc21)NCc1ccc(Cl)cc1` was 885 s.
The value for `NC(=O)c1cc2c(s1)N(CC1CC1)CCCC2` was 827 s; that for `O=C(Nc1nnc(Cc2ccccc2)s1)C1CC(=O)N(c2n[nH]c3cccc(F)c23)C1` (centres undefined) was 745 s; that for `Cc1ccc(S(=O)(=O)N2CCC(C(=O)NCc3cscn3)CC2)cc1C` was 748 s.
Turning to `COCC1CN(C(=O)c2ccc(Cc3c(C)noc3C)o2)CC12CCNCC2` (centres undefined), the RP-LC retention time came out at 586 s.
`c1cc(N2CCCCCC2)ncc1-c1noc(CN2CCCC2)n1` yielded an RP-LC retention time of 586 s.
In the case of `O=C(Cc1csc2nc(-c3ccccc3)cn12)NCc1ccco1`, the RP-LC retention time stood at 696 s.
Consider `CC(C)Cn1c(CC2CCN(C(=O)c3n[nH]c4ccccc34)C2)nc2cccnc21` (centres undefined), for which the RP-LC retention time turned out to be 627 s.
Consider `COc1ccc2[nH]c(=O)c(CCC(=O)NC3CCN(Cc4ccccc4)CC3)cc2c1`, for which the RP-LC retention time was determined as 596 s.
Regarding `CCOc1ccc(-n2ccn3cc(-c4cccc(OC)c4)nc3c2=O)cc1`, the RP-LC retention time amounted to 847 s.
For `CCc1ccc(C2=C(C)C(N3CCCN(C(=O)NCC(C)C)CC3)=NS2(=O)=O)cc1`, the RP-LC retention time was 842 s.
For `COc1ccc(NC(=O)N2CCOc3ccc(Cl)cc32)cc1OC`, the RP-LC retention time is 870 s.
Turning to `COc1cccc(N2CC(C(=O)Nc3nnc(SCc4ccccc4)s3)CC2=O)c1` (centres undefined), the RP-LC retention time worked out at 820 s.
As for `Cc1cc2c(cc1S(=O)(=O)N1CCCC1C(=O)Nc1ccc(Cl)cc1F)OCC(=O)N2` (centres undefined), the figure is 843 s.
The compound `CCn1cc(C)c(C(=O)O)c1CC(=O)N1CCC(N2CCCCC2)CC1` showed an RP-LC retention time of 587 s.
As for `Cc1nc(-c2csc(S(=O)(=O)N3CCC(C(=O)Nc4ccc5c(c4)OCCO5)CC3)c2)no1`, the figure is 868 s; as for `COc1ccc(Br)cc1-c1nnc2n(C)c3c(=O)n(C)c(=O)n(C)c3n12`, 641 s.
The compound `CCC(=O)Nc1ccc(-n2cnc(C(=O)N3CCN(c4cccc(C)c4C)CC3)c2)nc1` showed an RP-LC retention time of 855 s.
Regarding `COc1ccc(NC(=O)N2CCC(n3c(-c4ccco4)nc4cccnc43)C2)cc1Cl` (centres undefined), the RP-LC retention time amounted to 753 s.
The value for `CCCn1nc(-c2nc(-c3cccc(Cl)c3)no2)ccc1=O` was 1150 s.
For the compound `Cc1cc2c(N3CCCC(C(=O)N4CCN(c5ccccc5F)CC4)C3)nccc2s1` (centres undefined), the RP-LC retention time came out at 755 s.
Turning to `CCOC(=O)c1[nH]c(C)c(CCC(=O)N2CCC(C(=O)NCCCN3CCCC(C)C3)CC2)c1C` (centres undefined), the RP-LC retention time is 604 s.
For `CCC(=O)Nc1ccc2c(c1)Sc1ncccc1C(=O)N2C`, the RP-LC retention time stood at 630 s.
`CCOC(=O)c1[nH]c(C(=O)O)c(OC(=O)CC)c1C` came in with an RP-LC retention time of 912 s.
The value for `O=C1CC(c2ccccc2Cl)Cc2nc(N3CCN(Cc4ccc5c(c4)OCO5)CC3)ncc21` (centres undefined) was 765 s.
